Reference: patent publication USRE44873E1, “Imidazole-5-carboxylic acid derivatives, the preparation method therefor and the uses thereof” (Salubris Asset Management Co., Ltd., priority 2006, dated 2014)

Key:
[1] = tested on: spontaneously hypertensive rat (SHR); assay: Effect of lowering blood pressure in spontaneously hypertensive rats (administration through stomach fistula); format: in vivo; settings: female SHR, 30 mg/kg through stomach fistula, recorded in 6 hours after administration; for Systolic blood pressure post-administration: first figure of pair; for Diastolic blood pressure post-administration: second figure of pair
Protocol: A female spontaneously hypertensive rat (SHR) is anaesthetize by abdominal cavity injection with diazepam of 5 mg/kg and ketamine hydrochloride of 50 mg/kg and its back is fixed. An artery conduit is inserted from the left of a femoral artery to a lower abdominal aorta, and then a stomach fistula treatment is operated. After 20-30 hours for postoperative recovery, the artery conduit is connected to a pressure transducer by a perfusion three-way tube. Blood pressure signals per pulse are transformed into biologic signals by the pressure transducer, and systolic blood pressures and diastolic blood pressures per pulse are real-time recorded by a computer. After the SHR is connected to the computer system for 4-5 hours, blood pressures and palpitation intervals in one hour are recorded as normal comparing data before administration. Afterwards, the medicine with a dosage of 30 mg/kg and a volume of 2 ml/kg is administrated through the stomach fistula. Blood pressures in 6 hours after administration are continuously recorded to observe change of systolic blood pressure and diastolic blood pressure.
A female spontaneously hypertensive rat (SHR) is anaesthetize by abdominal cavity injection with diazepam of 5 mg/kg and ketamine hydrochloride of 50 mg/kg and its back is fixed. An artery conduit is inserted from the left of a femoral artery to a lower abdominal aorta, and than a stomach fistula treatment is operated. After 20-30 hours for postoperative recovery, the artery conduit is connected to it pressure transducer by a perfusion three-way tube. Blood pressure signals per pulse are transformed into biologic signals by pressure transducer, and systolic blood pressures and diastolic blood pressures per pulse are real-time recorded by a computer. When the SHR is connected to the computer system for 4-5 hours, blood pressures and palpitation intervals in one hour are recorded as normal comparing data before administration. Afterwards, it is adminstrated with a dosage of 30 mg/kg and a volume of 2 ml/kg through the stomach fistula. Blood pressures in 6 hours after administration are continuously recorded to observe changes of systolic blood pressure and diastolic blood pressure.

[2] = in vivo; settings: both, Kunming, mouse, po
[3] = tested on: Kunming mice; assay: Evaluation of toxicity (acute LD50, intragastric); settings: one intragastric administration, 14 days observation, 0.5% CMC-Na
[4] = Efficiency of active metabolism conversion (EXP3174 in blood plasma by HPLC after oral dosing); format: in vivo; settings: SD rats, 20 mg/kg oral intragastric infusion, blood at 3 hours
Protocol: The SD rats are orally administrated by intragastric infusion with a dosage of 20 mg/kg. Blood samples are collected from an orbit at the time of 3 hours since the administration. The blood samples freely drop into centrifuge tubes. The sampling amount of blood is 0.3˜0.5 ml, and the blood plasma is centrifugalized. After the sample is pre-treated, the blood is analyzed by using HPLC method to get the amount of EXP3174 in the blood plasma. Based on the molar ratio of the amount of EXP3174 and the amount of administration dosage, a ratio of the experiment compounds being converted into active metabolite in vivo may be calculated.

[5] = cited from earlier work
[6] = relative to EXP3174; cited from earlier work

Structure (SMILES) | Systolic blood pressure post-administration [1] | Diastolic blood pressure post-administration [1] | LD50 at 14 days [2] | other results
CCCCc1nc(Cl)c(C(=O)OC2OC(=O)c3ccccc32)n1Cc1ccc(-c2ccccc2-c2nnn[nH]2)cc1 (racemic) [Compound 2, (+/−)2-butyl-4-chloro-1-[2′-(1H-tetrazol-5-yl)1,1′-biphenyl-methyl]imidazole-5-carboxylic acid, 2-[C]-benzofuranonyl ester] | 155 mmHg | 105 mmHg |  | melting point: 120.6 to 124.6 °C
CCCCc1nc(Cl)c(C(=O)OC(C)OC(=O)OC2CCCCC2)n1Cc1ccc(-c2ccccc2-c2nnn[nH]2)cc1 (racemic) [Compound 7, (+/−)2-butyl-4-chloro-1-[2′-(1H-tetrazol-5-yl)1,1′-biphenyl-methyl]imidazole-5-carboxylic acid, 1-[(cyclohexyloxycarbonyl)oxy]ethyl ester] | 157 mmHg | 103 mmHg |  | 
CCCCc1nc(Cl)c(C(=O)OCC)n1Cc1ccc(-c2ccccc2-c2nnn[nH]2)cc1 [Compound 1, 2-butyl-4-chloro-1-[2′-(1H-tetrazol-5-yl)1,1′-biphenyl-methyl]imidazole-5-carboxylic acid, ethyl ester] | 159 mmHg | 103 mmHg |  | 
CCCCc1nc(Cl)c(C(=O)OCc2oc(=O)oc2C)n1Cc1ccc(-c2ccccc2-c2nnn[nH]2)cc1 [Compound 3, 2-butyl-4-chloro-1-[2′-(1H-tetrazol-5-yl)1,1′-biphenyl-methyl]imidazole-5-carboxylic acid, cyclic 2,3-carbonate] | 158 mmHg | 102 mmHg |  | 
CCCCc1nc(Cl)c(C(=O)OCOC(=O)C(C)(C)C)n1Cc1ccc(-c2ccccc2-c2nnn[nH]2)cc1 [Compound 4, 2-butyl-4-chloro-1-[2′-(1H-tetrazol-5-yl)1,1′-biphenyl-methyl]imidazole-5-carboxylic acid, pivaloyloxymethyl ester] | 159 mmHg | 102 mmHg |  | 
CCCCc1nc(Cl)c(C(=O)OC(C)OC(=O)OC(C)C)n1Cc1ccc(-c2ccccc2-c2nnn[nH]2)cc1 (stereo not drawn) [Compound 5, 2-butyl-4-chloro-1-[2′-(1H-tetrazol-5-yl)1,1′-biphenyl-methyl]imidazole-5-carboxylic acid, 1-[(isopropoxycarbonyl)oxy]ethyl ester] | 157 mmHg | 101 mmHg |  | 
CCCCc1nc(Cl)c(C(=O)OC(C)OC(=O)OC(C)(C)C)n1Cc1ccc(-c2ccccc2-c2nnn[nH]2)cc1 (stereo not drawn) [Compound 6, 2-butyl-4-chloro-1-[2′-(1H-tetrazol-5-yl)1,1′-biphenyl-methyl]imidazole-5-carboxylic acid, 1-[(tert-butoxycarbonyl)oxy]ethyl ester] | 159 mmHg | 103 mmHg |  | melting point: 60.5 to 62 °C
CCCCc1nc(Cl)c(C(=O)OCOC(=O)OC(C)C)n1Cc1ccc(-c2ccccc2-c2nnn[nH]2)cc1 [Compound 8, 2-butyl-4-chloro-1-[2′-(1H-tetrazol-5-yl)1,1′-biphenyl-methyl]imidazole-5-carboxylic acid, 1-[(isopropoxycarbonyl)oxy]methyl ester] | 156 mmHg | 101 mmHg | > 10000 mg/kg | 
CCCCc1nc(Cl)c(C(=O)OCOC(=O)OCC)n1Cc1ccc(-c2ccccc2-c2nnn[nH]2)cc1 [Compound 9, 2-butyl-4-chloro-1-[2′-(1H-tetrazol-5-yl)1,1′-biphenyl-methyl]imidazole-5-carboxylic acid, 1-[(ethoxycarbonyl)oxy]methyl ester] | 159 mmHg | 104 mmHg | > 10000 mg/kg | 
CCCCc1nc(Cl)c(C(=O)OCOC(=O)OC(C)(C)C)n1Cc1ccc(-c2ccccc2-c2nnn[nH]2)cc1 [Compound 10, 2-butyl-4-chloro-1-[2′-(1H-tetrazol-5-yl)1,1′-biphenyl-methyl]imidazole-5-carboxylic acid, 1-[(tert-butoxycarbonyl)oxy]methyl ester] | 158 mmHg | 103 mmHg | > 10000 mg/kg | 
CCCCc1nc(Cl)c(C(=O)OC(C)OC(=O)OCC)n1Cc1ccc(-c2ccccc2-c2nn[nH]n2)cc1 (stereo not drawn) [HN-65021] |  |  |  | LD50 [3]: 5000 to 8000 mg/kg; metabolism conversion ratio (molar ratio of EXP3174 in blood plasma to administered dosage) [4]: 1.5%
CCCCc1nc(Cl)c(CO)n1Cc1ccc(-c2ccccc2-c2nn[nH]n2)cc1 [losartan potassium] |  |  | 2000 mg/kg | Share of losartan potassium metabolized in vivo to its active substance EXP3174 [5]: 14%; Activity in reducing blood pressure as share of that of EXP3174 [6]: 3%
